# Read-outs that look alike come from different tables or passages of the source.
# Tests used:
# [1] = tested on: fetal HR; conditions: acute exposure; ref [49]; cited from earlier work
# [2] = Maternal plasma drug concentrations by HPLC tandem mass spectrometry at 36-weeks' gestation; conditions: for Δ T3-T0, change in dose-adjusted plasma concentration: mean ± SE, from baseline (T0) to post-dose 3 (T3); for Pharmacokinetic phase at the post-dose fetal assessment: reached Cmax
# Source text: To investigate chronic and acute SRI effects on the fetus, SRI-treated women were asked to withhold their typical morning oral dose until ~10h00, resulting in the AM/baseline and PM fetal assessments corresponding to pre-dose and post-dose periods, respectively. To characterize concurrent SRI pharmacokinetics across the study protocol, plasma drug concentrations were quantified at baseline (pre-dose) and four time-points post-dose; details on the drug level assay and pharmacologic variables are described below. Timing for each component of this study considered the need for a sufficient antidepressant baseline (pharmacologic trough), half-life, and time-to-peak plasma levels, weighted against length of study in effort to minimize maternal discomfort/inconvenience and potential effects of diurnal variations in the fetal variables obtained.
# Changes in maternal plasma drug concentration between fetal assessments were determined by analyzing blood samples from SRI-treated mothers pre-dose (T0, baseline levels; ~08h00) and at four time-points post-dose: T1 (~10h30), T2 (~12h30), T3 (~13h30), and T4 (~14h30). Serum was separated by centrifugation at 3,000 × g for 10 min, transferred to polypropylene tubes and stored at −70°C until analysis. High performance liquid chromatography tandem mass spectrometry, performed offsite (CANTEST Ltd.; Burnaby, Canada), was used to determine levels of fluoxetine, norfluoxetine, paroxetine, sertraline, citalopram, escitalopram and venlafaxine.
# Plasma drug concentrations were adjusted for maternal oral dose (ng/ml·mg). To quantify the relative change in maternal SRI level between the pre- and post-dose fetal assessments, the difference in dose-adjusted plasma drug concentration between T0 and T3 was determined. Plasma concentrations for metabolites were not reported as they reflect parent drugs.
# [3] = Non-compartmental pharmacokinetic analysis of maternal SRI plasma levels; format: in vivo, human; conditions: for AUC(0-t) / Cmax: female, human, 36-weeks' gestation, daily oral dose; for AUC(0-t) / Cmax / Tpeak: mean ± SE; for AUC(0-t): area under the curve from T0 (baseline) to last measured plasma concentration (T4), SRI-treated women; for Cmax: maximum (peak) maternal plasma drug concentration; for Tpeak: time from baseline (T0) to reach Cmax, oral dose about 1.8 h after T0
# Protocol: Maternal SRI plasma levels were further characterized by performing a non-compartmental pharmacokinetic analysis, yielding estimates of maximum plasma drug concentration (Cmax), time-to-peak (Tpeak) and area under the curve (AUClast). Pharmacokinetic variables were calculated using the PKNCA R package ([73]).
# [4] = parameters: method as in PMID 26765210; conditions: rodents; 2-h after maternal drug administration; ref [83]; cited from earlier work
# [5] = known value the observation is said to be consistent with; no reference given; cited from earlier work
Compound,Effect on fetal HR variability [1],"Δ T3-T0, change in dose-adjusted plasma concentration [2] [ng/ml·mg]",Pharmacokinetic phase at the post-dose fetal assessment [2],"AUClast, total observed maternal drug exposure during study protocol (rank among antidepressants) [3]",AUC(0-t) [3] [ng·h/mL],Cmax [3] [ng/mL],Tpeak [3] [h],Fetal citalopram exposure relative to the mother [4],Pharmacokinetic phase by the last blood collection (T4) [2],Pharmacokinetic phase by the last blood collection (T4) ([2]; listed as fluoxetine),Tpeak [5] [h]
CN1CCC[C@H]1c1cccnc1 [nicotine],decreased,,,,,,,,,,
Fc1ccc([C@@H]2CCNC[C@H]2COc2ccc3c(c2)OCO3)cc1 [Paroxetine],,0.13 ± 0.21,early elimination phase,lowest,125 ± 66,24 ± 5.2,4.6 ± 0.04,,,,
CN[C@H]1CC[C@@H](c2ccc(Cl)c(Cl)c2)c2ccccc21 [Sertraline],,0.71 ± 0.53,early elimination phase,,728 ± 256,197 ± 105,5.3 ± 0.18,,,,
CN(C)CCCC1(c2ccc(F)cc2)OCc2cc(C#N)ccc21 (stereo not shown) [Citalopram],,3.2 ± 1.0,early elimination phase,,906 ± 271,274 ± 92,4.9 ± 0.14,exceed that of the mother,,,
CNCCC(Oc1ccc(C(F)(F)F)cc1)c1ccccc1 (stereo not shown) [Fluoxetine],,4.3 ± 2.5,,highest,3220 ± 1920,613 ± 342,5.8 ± 1.0,,absorption phase,still in the absorption phase,6 to 8
COc1ccc(C(CN(C)C)C2(O)CCCCC2)cc1 (stereo not shown) [Venlafaxine],,0.43 ± 0.13,,,621 ± 314,163 ± 74,5.7 ± 0.30,,still in the absorption phase,,

# Reference: PMC8415315, “Maternal Serotonin Reuptake Inhibitor Antidepressants Have Acute Effects on Fetal Heart Rate Variability in Late Gestation” (Frontiers in Psychiatry, 2021)
